Among the data in ChEMBL document CHEMBL5321272 (J Med Chem, 2023) are IC50, Ratio IC50 and Activity values, retold here.

The target in series [1] is Receptor-type tyrosine-protein kinase FLT3 (Homo sapiens, UniProt P36888). The series can be described thus: Inhibition of wild type FLT3 (unknown origin) using peptide substrate TK-S and ATP as substrate incubated for 1 hr by HTRF assay.
The target of series [2] is Mast/stem cell growth factor receptor Kit (Homo sapiens, UniProt P10721). The series can be described thus: Inhibition of c-KIT (unknown origin) using peptide substrate TK-S and ATP as substrate incubated for 1 hr by HTRF assay. The class given is toxicity.
Mast/stem cell growth factor receptor Kit, sequence (P10721 whole entry): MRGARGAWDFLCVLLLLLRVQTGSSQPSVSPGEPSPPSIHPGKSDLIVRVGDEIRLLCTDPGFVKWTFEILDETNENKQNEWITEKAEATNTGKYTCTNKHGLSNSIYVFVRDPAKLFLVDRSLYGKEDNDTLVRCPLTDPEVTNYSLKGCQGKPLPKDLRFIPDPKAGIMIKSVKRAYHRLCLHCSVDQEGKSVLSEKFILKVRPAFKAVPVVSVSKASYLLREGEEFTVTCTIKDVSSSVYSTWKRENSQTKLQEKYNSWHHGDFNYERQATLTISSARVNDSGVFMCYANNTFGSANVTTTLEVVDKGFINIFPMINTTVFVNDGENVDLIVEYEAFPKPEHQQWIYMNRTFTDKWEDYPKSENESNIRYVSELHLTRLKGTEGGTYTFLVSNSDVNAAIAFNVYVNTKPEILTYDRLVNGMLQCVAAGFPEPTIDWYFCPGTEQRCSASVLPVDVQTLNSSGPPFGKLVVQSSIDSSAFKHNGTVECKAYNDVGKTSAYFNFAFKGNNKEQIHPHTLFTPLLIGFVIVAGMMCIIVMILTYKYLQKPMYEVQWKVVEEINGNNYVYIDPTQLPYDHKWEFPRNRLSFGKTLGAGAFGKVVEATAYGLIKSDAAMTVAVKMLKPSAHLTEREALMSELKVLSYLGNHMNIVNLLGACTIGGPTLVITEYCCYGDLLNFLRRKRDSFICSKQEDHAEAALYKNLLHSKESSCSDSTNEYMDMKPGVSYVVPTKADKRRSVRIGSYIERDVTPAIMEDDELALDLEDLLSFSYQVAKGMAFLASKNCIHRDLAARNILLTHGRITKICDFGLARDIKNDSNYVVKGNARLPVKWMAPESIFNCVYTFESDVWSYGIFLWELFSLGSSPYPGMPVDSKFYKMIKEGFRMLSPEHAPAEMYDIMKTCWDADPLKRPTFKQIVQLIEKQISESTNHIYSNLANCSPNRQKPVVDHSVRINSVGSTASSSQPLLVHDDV
The target in another series is AMPK alpha2/beta1/gamma1 (Homo sapiens, UniProt P54619+P54646+Q9Y478). The series can be described thus: Inhibition of AMPK alpha2beta1gamma1 (unknown origin) by HTRF assay. It counts as protein-complex assay.
AMPK alpha2/beta1/gamma1, sequence (P54646 whole entry): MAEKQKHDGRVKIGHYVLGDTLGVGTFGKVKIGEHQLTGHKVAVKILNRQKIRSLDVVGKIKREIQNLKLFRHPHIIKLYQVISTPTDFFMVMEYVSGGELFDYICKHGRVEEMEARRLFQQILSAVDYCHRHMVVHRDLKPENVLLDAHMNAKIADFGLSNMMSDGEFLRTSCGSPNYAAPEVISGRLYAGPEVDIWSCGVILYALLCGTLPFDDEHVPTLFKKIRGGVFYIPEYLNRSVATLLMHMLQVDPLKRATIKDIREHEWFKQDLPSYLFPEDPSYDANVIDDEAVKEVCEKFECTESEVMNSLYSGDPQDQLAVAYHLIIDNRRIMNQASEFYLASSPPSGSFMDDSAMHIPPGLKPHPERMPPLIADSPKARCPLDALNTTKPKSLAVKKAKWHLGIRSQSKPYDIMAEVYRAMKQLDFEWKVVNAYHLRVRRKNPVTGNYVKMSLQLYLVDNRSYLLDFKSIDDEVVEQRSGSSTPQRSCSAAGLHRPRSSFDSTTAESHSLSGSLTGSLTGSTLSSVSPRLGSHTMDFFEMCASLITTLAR
AMPK alpha2/beta1/gamma1, sequence (P54619 whole entry): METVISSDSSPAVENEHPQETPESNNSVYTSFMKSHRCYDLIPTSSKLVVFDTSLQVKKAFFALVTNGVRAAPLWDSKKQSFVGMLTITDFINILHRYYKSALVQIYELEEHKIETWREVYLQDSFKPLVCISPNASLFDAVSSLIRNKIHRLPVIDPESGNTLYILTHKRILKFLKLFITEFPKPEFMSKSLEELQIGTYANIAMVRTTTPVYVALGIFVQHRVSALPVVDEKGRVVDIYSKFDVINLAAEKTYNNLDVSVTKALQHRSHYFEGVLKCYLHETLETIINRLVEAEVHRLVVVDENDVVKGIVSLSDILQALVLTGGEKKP
AMPK alpha2/beta1/gamma1, sequence (Q9Y478 whole entry): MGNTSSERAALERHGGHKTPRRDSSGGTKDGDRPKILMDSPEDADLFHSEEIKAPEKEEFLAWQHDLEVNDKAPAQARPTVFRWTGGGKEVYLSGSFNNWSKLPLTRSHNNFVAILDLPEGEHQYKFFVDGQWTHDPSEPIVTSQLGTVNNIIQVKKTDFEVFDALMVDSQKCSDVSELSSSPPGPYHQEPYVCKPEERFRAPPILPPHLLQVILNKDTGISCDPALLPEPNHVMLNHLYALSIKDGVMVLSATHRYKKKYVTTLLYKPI
The nature of series [3]: Selectivity ratio of IC50 for BMX (unknown origin) to IC50 for FLT3-ITD mutant (unknown origin).
Series [4] in a line: Selectivity ratio of IC50 for LYN (unknown origin) to IC50 for FLT3-ITD mutant (unknown origin).
Series [5] is described as follows: Selectivity ratio of IC50 for PKA (unknown origin) to IC50 for FLT3-ITD mutant (unknown origin).
The nature of series [6]: Selectivity ratio of IC50 for CDK1 (unknown origin) to IC50 for FLT3-ITD mutant (unknown origin).
The nature of series [7]: Selectivity ratio of IC50 for ALK (unknown origin) to IC50 for FLT3-ITD mutant (unknown origin).
The subject of the next series is MOLM-13. Briefly: Antiproliferative activity against human MOLM-13 cells assessed as reduction in cell viability incubated for 72 hrs by CellTiter 96 Aqueous One Solution Cell Proliferation Assay. The class given is functional, cell-based.
Series [8] in a line: Acute toxicity in ICR mouse assessed as morphological changes in heart at 300 mg/kg, ig and measured for 7 days by Hematoxylin-Eosin staining based analysis. The class given is organism-based. The settings on record: in vivo, po, 168 h, time 7 day.
Series [9] can be described thus: Acute toxicity in ICR mouse assessed as morphological changes in kidney at 300 mg/kg, ig and measured for 7 days by Hematoxylin-Eosin staining based analysis. The class given is organism-based. Particulars: in vivo, po, 168 h, time 7 day.

The structures appear in SMILES notation. The source made the active and inactive calls. The rule behind the calls is not given here.

Receptor-type tyrosine-protein kinase FLT3, sequence (P36888 whole entry): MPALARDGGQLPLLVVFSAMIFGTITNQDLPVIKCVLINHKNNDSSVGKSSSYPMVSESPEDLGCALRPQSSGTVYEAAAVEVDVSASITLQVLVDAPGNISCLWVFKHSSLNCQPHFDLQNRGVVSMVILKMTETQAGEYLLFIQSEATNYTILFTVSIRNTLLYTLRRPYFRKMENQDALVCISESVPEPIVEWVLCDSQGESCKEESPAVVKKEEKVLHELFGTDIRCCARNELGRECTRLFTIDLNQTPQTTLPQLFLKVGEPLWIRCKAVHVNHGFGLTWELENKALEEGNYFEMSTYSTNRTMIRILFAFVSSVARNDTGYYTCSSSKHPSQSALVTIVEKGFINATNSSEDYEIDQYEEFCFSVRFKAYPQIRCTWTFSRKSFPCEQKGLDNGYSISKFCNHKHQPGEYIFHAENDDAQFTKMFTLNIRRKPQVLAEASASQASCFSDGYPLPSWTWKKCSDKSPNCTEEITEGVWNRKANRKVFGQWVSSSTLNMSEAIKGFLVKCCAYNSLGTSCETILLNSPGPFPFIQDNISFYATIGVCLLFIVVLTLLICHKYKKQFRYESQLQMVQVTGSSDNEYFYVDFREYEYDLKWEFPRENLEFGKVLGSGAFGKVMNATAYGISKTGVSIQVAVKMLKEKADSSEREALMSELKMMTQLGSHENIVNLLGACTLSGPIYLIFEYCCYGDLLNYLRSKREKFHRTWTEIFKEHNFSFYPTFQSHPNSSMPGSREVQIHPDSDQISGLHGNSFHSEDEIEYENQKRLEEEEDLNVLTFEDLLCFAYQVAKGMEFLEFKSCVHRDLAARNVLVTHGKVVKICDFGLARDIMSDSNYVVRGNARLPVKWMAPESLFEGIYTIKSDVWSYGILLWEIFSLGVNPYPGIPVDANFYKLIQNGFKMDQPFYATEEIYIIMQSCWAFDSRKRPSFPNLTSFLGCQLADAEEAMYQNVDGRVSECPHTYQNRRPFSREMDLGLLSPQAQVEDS

With `CC(C)(O)CC(=O)N1CCc2cc(Nc3ncc(C(F)(F)F)c(N[C@H]4CC[C@@H](N)CC4)n3)ccc2C1`, the figures for the IC50 (in series [1]; in series [2]; on AMPK alpha2/beta1/gamma1) were less than 10 nM, 1870 nM and 18.4 nM, respectively. The Ratio IC50 in [3], in [4], in [5], in [6] and in series [7] was greater than 100 each time. Further, the result in the series with MOLM-13 was Active. In addition, the Activity entry in series [8] and in series [9] was “Non-Toxic” in each case.
